Some test systems named below: OVCAR-3 ovarian; IGROV1 ovarian; OVCAR-8 ovarian; SR leukemia; MALME-3M melanoma; SNB-19 CNS; RXF 393 renal; NCI-H226 lung; HCT-15 colon; RPMI-8226 leukemia; EKVX NSCLC; UO-31 renal; ACHN renal; MDA-MB-231 breast.
Holding throughout (experiment): NCI anticancer screen, dose series, 48 h

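Five concentrations, 48 hours, 96-well plates. TGI marks complete inhibition of growth.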

On to `O=C(CCN(CCO)CCO)Nc1ccc2c(c1)C(=O)c1ccc(NC(=O)CCN(CCO)CCO)cc1C2=O`, for which the TGI was 51.3 µM in the test on OVCAR-3 ovarian; 50.7 µM in the test with IGROV1 ovarian; more than 100 µM with OVCAR-8 ovarian; more than 100 µM in the test on SR leukemia; 27.9 µM in the test on MALME-3M melanoma; 86.3 µM in the test with SNB-19 CNS. In addition, the TGI in the test with RXF 393 renal is 79.4 µM; in the test with NCI-H226 lung, 44.2 µM; with HCT-15 colon it was 19.8 µM; with RPMI-8226 leukemia it was more than 100 µM; with EKVX NSCLC it was 55 µM; in the test with UO-31 renal, 22.1 µM. Moreover, the TGI with ACHN renal is more than 100 µM.
With `CCOc1ccc(NCC(=O)N2CC(=O)Nc3ccccc32)cc1`, the TGI in the test with OVCAR-3 ovarian, in the test on OVCAR-8 ovarian, with SR leukemia, in the test on MALME-3M melanoma, in the test on SNB-19 CNS and in the test with RXF 393 renal was more than 100 µM in each case. The TGI with NCI-H226 lung, in the test with HCT-15 colon, with RPMI-8226 leukemia, in the test on EKVX NSCLC, in the test with UO-31 renal and in the test on ACHN renal was more than 100 µM in each case.
As to `CCCCCCCCCCCCCCCC(=O)NC1CCc2cc(O)c(O)c(O)c2-c2ccc(SC)c(=O)cc21` (stereo not drawn), the TGI in the test with OVCAR-3 ovarian is 16.8 µM; in the test with IGROV1 ovarian it was 25.3 µM; in the test with OVCAR-8 ovarian, 28.8 µM; in the test with SR leukemia it was more than 31 µM; in the test with MALME-3M melanoma it was 28.5 µM; with SNB-19 CNS it was 23.4 µM. Further, the TGI in the test on RXF 393 renal is 7.66 µM; with NCI-H226 lung, 27.4 µM; in the test on HCT-15 colon, 15.5 µM; with RPMI-8226 leukemia, more than 100 µM; in the test with EKVX NSCLC it was 39.7 µM; in the test with UO-31 renal, 22.6 µM. The TGI in the test on ACHN renal is 22.4 µM.
On to `COc1ccccc1NC(=O)C(C#N)=C(SC)SC`, for which the TGI with OVCAR-3 ovarian, in the test with MDA-MB-231 breast, in the test with IGROV1 ovarian, with SR leukemia, in the test on MALME-3M melanoma and in the test on SNB-19 CNS was more than 100 µM throughout. Moreover, the TGI with RXF 393 renal, in the test with NCI-H226 lung, in the test on HCT-15 colon, with RPMI-8226 leukemia, in the test with EKVX NSCLC and in the test with UO-31 renal was more than 100 µM each time. This compound also returned a TGI in the test with ACHN renal of more than 100 µM.
Take `CC(=O)Nc1ccc(-c2nnc(SCC(=O)Nc3ccccc3Cl)o2)cc1`: the TGI in the test on OVCAR-3 ovarian, in the test with IGROV1 ovarian, in the test with OVCAR-8 ovarian, with MALME-3M melanoma, in the test on SNB-19 CNS and with RXF 393 renal was more than 100 µM throughout. The TGI in the test on NCI-H226 lung, in the test on HCT-15 colon, in the test with UO-31 renal and in the test on ACHN renal was more than 100 µM each time.
In the case of `CC(SC1=CC(=O)c2c(Cl)ccc(O)c2C1=O)C(=O)O` (stereo not drawn), the TGI with IGROV1 ovarian is 33.4 µM; in the test with OVCAR-8 ovarian it was 36.3 µM; in the test on SR leukemia, 37.9 µM; in the test with MALME-3M melanoma it was 37.7 µM; with NCI-H226 lung, 57.3 µM; with HCT-15 colon it was 33.9 µM. The results for the TGI in the test on RPMI-8226 leukemia and with EKVX NSCLC were 76.4 µM and 39.9 µM, respectively.
Consider `CC1C2CC(C(C3C(=O)C4CC3C(C)(C)C4C)C2=O)C1(C)C` (stereo not drawn), for which the TGI with OVCAR-3 ovarian, with MDA-MB-231 breast, with IGROV1 ovarian, in the test with OVCAR-8 ovarian, in the test on SR leukemia and in the test with MALME-3M melanoma was more than 100 µM throughout. Moreover, the TGI in the test on SNB-19 CNS, with RXF 393 renal, in the test on NCI-H226 lung, with EKVX NSCLC, with UO-31 renal and with ACHN renal was more than 100 µM each time.
As to `CCc1cc(Cc2cc(CC)c(NC(=O)C3=CC(=O)CC(c4ccc(OC)cc4)O3)c(CC)c2Cl)c(Cl)c(CC)c1NC(=O)C1=CC(=O)CC(c2ccc(OC)cc2)O1` (stereo not drawn), the TGI stood at 38.2 µM in the test on OVCAR-3 ovarian; 45.5 µM in the test with IGROV1 ovarian; 90.5 µM in the test on OVCAR-8 ovarian; 59.2 µM in the test on SR leukemia; 37.2 µM in the test on MALME-3M melanoma; 42.7 µM in the test on SNB-19 CNS. Moreover, the TGI is 34.7 µM in the test with RXF 393 renal; 47.5 µM in the test on NCI-H226 lung; 53.7 µM in the test with HCT-15 colon; 46.8 µM in the test on RPMI-8226 leukemia; more than 100 µM with EKVX NSCLC; 30.8 µM with UO-31 renal. The same compound displayed a TGI in the test with ACHN renal of 32.1 µM.
For `COc1ccc2c(OC)c3ccoc3nc2c1O`, the TGI in the test on OVCAR-3 ovarian, with IGROV1 ovarian, in the test on OVCAR-8 ovarian, in the test on MALME-3M melanoma, with SNB-19 CNS and in the test with HCT-15 colon was more than 100 µM each time. Also, the TGI in the test on RPMI-8226 leukemia, in the test with EKVX NSCLC, with UO-31 renal and in the test with ACHN renal was more than 100 µM throughout.
Regarding `c1ccc(C2=NN(c3ccccc3)C3(S2)SC(c2ccccc2)(c2ccccc2)c2ccccc23)cc1` (stereo not drawn), the TGI with OVCAR-3 ovarian, in the test with IGROV1 ovarian, in the test on OVCAR-8 ovarian, in the test on MALME-3M melanoma, in the test on SNB-19 CNS and in the test with NCI-H226 lung was more than 100 µM throughout. Moreover, the TGI in the test on HCT-15 colon, in the test with RPMI-8226 leukemia, in the test with EKVX NSCLC, with UO-31 renal and with ACHN renal was more than 100 µM throughout.
Regarding `CC(=O)OC1[C@H]2c3cc4c(cc3CN3CCC(C[C@@H]1OC(C)=O)C23)OCO4` (stereo partly drawn), the TGI in the test on OVCAR-3 ovarian, in the test on IGROV1 ovarian, in the test on OVCAR-8 ovarian, in the test on SR leukemia, in the test on MALME-3M melanoma and in the test with SNB-19 CNS was more than 75 µM each time. Further, the TGI in the test on RXF 393 renal is more than 75 µM; in the test with NCI-H226 lung it was 59.9 µM; with HCT-15 colon, more than 75 µM; with RPMI-8226 leukemia, more than 75 µM; in the test with EKVX NSCLC, more than 75 µM; in the test on UO-31 renal it was more than 75 µM. The compound also yielded a TGI with ACHN renal of more than 75 µM.
